System: Saccharomyces cerevisiae ABC16-Green Monster
Assay: growth inhibition at single dose (up to 150 µM), below the 70% cut-off for dose-response; higher = more potent
Conditions: 18 h; 30 °C; YPD
Method in brief: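 Values are percent growth inhibition of drug-sensitive S. cerevisiae ABC16-Green Monster cells. Cells grown overnight in YPD at 30 °C were diluted to log phase (OD600 0.1–0.2), and each library compound was added at a single dose of 150 µM to 200 µl culture per well in 96-well plates, in biological duplicates, beside untreated cultures. OD600 was read at 0 h and after 18 h at 30 °C, and compounds under 70% in both replicates were not taken to dose-response.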

Cc1c(CN2CCN(c3ccccn3)CC2)noc1-c1ccc(F)cc1
growth inhibition at single dose: < 70%

CCCOc1ccc(C(F)(F)F)cc1NC(=O)c1nc2nccc(C)n2n1
growth inhibition at single dose: < 70%

c1ccc(Oc2ccc(-c3cncc(-c4ccc5[nH]ccc5c4)n3)cc2)cc1
growth inhibition at single dose: < 70%

CCOC(=O)c1c(C)[nH]c(C(=O)CSc2nnc(C3CC3)n2N)c1C
growth inhibition at single dose: < 70%

OC[C@H]1O[C@@H](n2c3ccc(Cl)cc3c3c(-c4cc5ccccc5o4)ncnc32)C(O)[C@H]1O (stereo partly drawn)
growth inhibition at single dose: < 70%

O=[N+]([O-])c1cn2c(n1)OC[C@@H](OCc1ccc(OC(F)(F)F)cc1)C2
growth inhibition at single dose: < 70%

CCCCCCc1cc2cc(-c3csc(C=Cc4ccccc4)n3)c(=O)oc2cc1O
growth inhibition at single dose: < 70%

COCCn1c(C)nc2ccccc2c1=O
growth inhibition at single dose: < 70%

Cc1ccc(NS(=O)(=O)c2ccc(C(=O)Nc3ncccc3O)cc2)cc1
growth inhibition at single dose: < 70%

COc1ccc(CCNc2ncnc3sc(C)cc23)cc1OC
growth inhibition at single dose: < 70%

Cc1c(C)n(CCCO)c2ncn3nc(-c4ccc(F)cc4)nc3c12
growth inhibition at single dose: < 70%

COc1cccc(OCC(=O)c2ccc(Br)cc2)c1
growth inhibition at single dose: < 70%

Cc1ccc(F)cc1NC(=O)c1cc(Cl)ccc1Nc1ccccc1
growth inhibition at single dose: < 70%

O=C(Nc1cccnc1)c1c(O)c2cccc3c2n(c1=O)CC3
growth inhibition at single dose: < 70%

CCn1c(SCC(=O)Nc2cc(C(F)(F)F)ccc2Cl)nc2ccccc2c1=O
growth inhibition at single dose: < 70%

O=C(Nc1ccccc1-c1nc2c(C(=O)O)cccc2o1)c1ccccc1
growth inhibition at single dose: < 70%

Cc1cc(C(=O)C(C)Sc2nnnn2C2CC2)c(C)n1-c1ccccc1 (stereo not drawn)
growth inhibition at single dose: < 70%

COc1ccccc1OCCCCn1c(C2CC2)nc2ccccc21
growth inhibition at single dose: < 70%

CCOC(=O)C1=C(C)N=c2sc(=Cc3ccccc3O)c(=O)n2C1c1ccc(OC)c2ccccc12 (stereo not drawn)
growth inhibition at single dose: < 70%

CCN(CC)CCN1COc2c(cc(Cl)c3cccnc23)C1
growth inhibition at single dose: < 70%

Cc1cc(NCC(C)C)c2n[nH]c(-c3ccccc3)c2n1
growth inhibition at single dose: < 70%

CCCC(c1nnnn1C1CCCCC1)N1CCN(C(=O)c2ccco2)CC1 (stereo not drawn)
growth inhibition at single dose: < 70%

Nc1c(C(=O)N2CCOCC2)sc2nc3c(cc12)CCCCC3
growth inhibition at single dose: < 70%

COc1cc(Br)cc2cc(C(=O)Nc3cccc(C(F)(F)F)c3)c(=O)oc12
growth inhibition at single dose: < 70%

O=C(C1CCN(c2nnnn2-c2ccccc2)CC1)N1CCc2ccccc2C1
growth inhibition at single dose: < 70%

Cc1ccc2nc(C)c(-c3ccn(Cc4ccccc4)n3)n2c1
growth inhibition at single dose: < 70%

CN(c1ccccc1)S(=O)(=O)c1ccc(NC(=O)c2cccs2)cc1
growth inhibition at single dose: < 70%

COc1cccc(-c2nn(C)c3sc(C(=O)NCCN4CCN(c5ccccc5F)CC4)cc23)c1
growth inhibition at single dose: < 70%

CCN(CC)CCNc1ccnc2cc3ccccc3cc12
growth inhibition at single dose: < 70%

CC(Nc1ncnc2sccc12)c1ccc(-n2cncn2)cc1 (stereo not drawn)
growth inhibition at single dose: < 70%

N#CCNC(=O)c1ccc(-c2ccnc(Nc3ccc(N4CCOCC4)cc3)n2)cc1 [Momelotinib]
growth inhibition at single dose: < 70%

Cc1csc(SCC(=O)c2cc(C)n(-c3ccccc3)c2C)n1
growth inhibition at single dose: < 70%

Cc1cc(N2CCN(CCO)CC2)n2ncc(-c3ccc(F)cc3)c2n1
growth inhibition at single dose: < 70%

CCCCN1C(=O)C(=O)N(CC(=O)Nc2sc(Cc3ccc4c(c3)OCO4)c(C)c2C(=O)OCC)C1=O
growth inhibition at single dose: < 70%

COc1ccc2nc(C)cc(Nc3ccc(Cl)cc3)c2c1
growth inhibition at single dose: < 70%

COc1cc(OC)cc(N2C(=O)N(Cc3ccc(C(C)(C)C)cc3)c3ccccc3S2(=O)=O)c1
growth inhibition at single dose: < 70%

FC(F)(F)c1ccc(NCCNc2ccc(C(F)(F)F)cn2)nc1
growth inhibition at single dose: < 70%

COc1ccc(N(CCCN2C(=O)c3cccc4cccc(c34)C2=O)C(=O)c2ccccc2Cl)cc1
growth inhibition at single dose: < 70%

Oc1ccc2ccccc2c1CNc1nc2ccccc2[nH]1
growth inhibition at single dose: < 70%

Cc1cnc(CCNC(=O)c2cc(-c3ccc(Cl)cc3)cs2)[nH]1
growth inhibition at single dose: < 70%

COc1ccc2nc(N)nc(C)c2c1
growth inhibition at single dose: < 70%

O=C(Cc1ccccc1)NC(c1ccc(Cl)cc1)c1c(O)ccc2ccccc12 (stereo not drawn)
growth inhibition at single dose: < 70%

O=C(Nc1nc2ccc(Oc3ccccc3)cc2s1)C1=COCCO1
growth inhibition at single dose: < 70%

Cc1cc(C)n(-c2nc(-c3ccccc3)cc(N(C)CCO)n2)n1
growth inhibition at single dose: < 70%

COc1cccc(Cn2nc(C(=O)NC3CC3)c3c2CCN(Cc2cc4c(cc2Cl)OCO4)C3)c1
growth inhibition at single dose: < 70%

CC(C)c1nc(N2CCN(CC(=O)N3CCCC3)CC2)c(C#N)c2c1CCC2
growth inhibition at single dose: < 70%

Cc1nccc(-c2cccc(N/N=C(\C#N)S(=O)(=O)c3ccccn3)c2)n1
growth inhibition at single dose: < 70%

O=C(NC1=NCCS1)c1sc2cc(F)ccc2c1Cl
growth inhibition at single dose: < 70%

O=C(N[C@H](Cc1ccccc1)C(=O)Nc1ccccc1N1CCOCC1)c1cccs1
growth inhibition at single dose: < 70%

Cc1cccc(NC(=O)CN2C(=O)/C(=C(/C#N)c3nc4ccccc4[nH]3)c3ccccc32)c1
growth inhibition at single dose: < 70%

O=C(NC1CCN(Cc2ccccc2)CC1)c1cc2nc(-c3ccc(Cl)s3)cc(C(F)(F)F)n2n1
growth inhibition at single dose: < 70%

Cc1ccc(CNC(=O)c2ccc(/C=C3\SC(=O)NC3=O)cc2)cc1
growth inhibition at single dose: < 70%

Cc1cc(C(=O)CSc2nc3ccccc3[nH]2)c(C)n1CC1CCCO1 (stereo not drawn)
growth inhibition at single dose: < 70%

CNC(=O)c1ccc(CN(Cc2ccc(SC)cc2)Cc2ccco2)cc1
growth inhibition at single dose: < 70%

O=C(NC1CC1)c1ccc(CN(Cc2ccco2)Cc2nc(-c3ccc(F)cc3)no2)cc1
growth inhibition at single dose: < 70%

CC(=O)N1CCc2cc(NC(=O)c3cc(C)n(C4CCCCC4)c3C)ccc21
growth inhibition at single dose: < 70%

Fc1ccc2[nH]c3c(NCCCN4CCOCC4)ncnc3c2c1
growth inhibition at single dose: < 70%

COc1ccc(OC)c(C(C)Nc2ncnc3sccc23)c1 (stereo not drawn)
growth inhibition at single dose: < 70%

Oc1ccc(Br)cc1CN1CCN(Cc2cccc(F)c2)CC1
growth inhibition at single dose: < 70%

CCC(c1ccccc1)c1nn2c(-c3cccs3)nnc2s1 (stereo not drawn)
growth inhibition at single dose: < 70%

Cc1ccc(O)c(C(=O)NCCC(C)C)c1
growth inhibition at single dose: < 70%

COc1ccc(-c2nn(C(C)C)c3ncnc(N)c23)cc1OC
growth inhibition at single dose: < 70%

C#CCNS(=O)(=O)c1ccc(C(=O)Nc2ccccc2O)cc1
growth inhibition at single dose: < 70%

C=CCNC(=O)C(C)Sc1nnc(-c2ccc(C)cc2)c(-c2ccc(C)cc2)n1 (stereo not drawn)
growth inhibition at single dose: < 70%

Cc1cc(C(=O)Nc2ccc(-c3ccccc3)cc2)no1
growth inhibition at single dose: < 70%

Cc1nn(-c2ccc(F)cc2)c(Cl)c1/C=C1\C(=O)Nc2ccccc21
growth inhibition at single dose: < 70%

COc1cc(C(=O)ON=C(N)Cc2cccc3ccccc23)cc(OC)c1OC
growth inhibition at single dose: < 70%

CN1CCN(c2ccc(NC(=O)c3csc4c3CCCC4)cc2)CC1
growth inhibition at single dose: < 70%

CCCc1ccc(S(=O)(=O)Nc2ccc(CN3CCN(CC4CC4)CC3)cc2)cc1
growth inhibition at single dose: < 70%

Cc1ccc(Cl)cc1N1CCN(CCCNC(=O)C2CCN(c3nc4ccccc4[nH]3)CC2)CC1
growth inhibition at single dose: < 70%

CCc1nc2ccccc2n1CC(O)COc1cc(C)ccc1Cl (stereo not drawn)
growth inhibition at single dose: < 70%

CCOc1ccc2nc(C)cc(Nc3ccc(N(C)C)cc3)c2c1
growth inhibition at single dose: < 70%

COc1ccc(-c2csc3ncnc(Sc4nnc(-c5cccc(C)c5)n4CC(N)=O)c23)cc1
growth inhibition at single dose: < 70%

CCc1ccc(/C=C/c2ccc3cccc(O)c3n2)cc1
growth inhibition at single dose: < 70%

Cc1cc(C)c2c(c1)OCN(Cc1ccccc1Cl)C2
growth inhibition at single dose: < 70%

Cc1cc(C)c2nc(N3CCC(C(=O)NCCCN4CCC(N5CCCCC5)CC4)CC3)sc2c1
growth inhibition at single dose: < 70%

CN(N=O)C1=C(NC2CCCCC2)C(=O)c2ccccc2C1=O
growth inhibition at single dose: < 70%

Cc1ccc(-c2cc(C(=O)Nc3cccnc3)c3cc(Br)ccc3n2)cc1
growth inhibition at single dose: < 70%

CS(=O)(=O)c1ccccc1C(=O)N(Cc1ccccc1)c1ccccc1
growth inhibition at single dose: < 70%

CCc1ccccc1-n1c(C)cn2c3c(=O)n(C(C(=O)OC)C(C)C)c(=O)n(C)c3nc12 (stereo not drawn)
growth inhibition at single dose: < 70%

C/N=c1\scc(-c2ccc(OC(F)F)cc2)n1/N=C/c1cccs1
growth inhibition at single dose: < 70%

CC(C)C(C(=O)Nc1ccc(S(=O)(=O)N(C)C)cc1)c1ccc(Cl)cc1 (stereo not drawn)
growth inhibition at single dose: < 70%

O=C(NC1CCN(Cc2ccccc2)CC1)c1cc(C(=O)NC2CCN(Cc3ccccc3)CC2)cc(C(=O)NC2CCN(Cc3ccccc3)CC2)c1
growth inhibition at single dose: < 70%

COc1ccc(C(=O)C2CC2c2ccc(Cl)cc2)cc1 (stereo not drawn)
growth inhibition at single dose: < 70%

CCCCc1ccc(NS(=O)(=O)c2cc3c4c(c2)CCN4C(=O)CC3)cc1
growth inhibition at single dose: < 70%

Nc1ncc(Br)cc1-c1nc2cc(Cl)cnc2[nH]1
growth inhibition at single dose: < 70%

CN(C)CCCNc1c2ccccc2nc2ccccc12
growth inhibition at single dose: < 70%

Oc1ccc(Br)cc1CN1CCN(Cc2ccc(Cl)cc2)CC1
growth inhibition at single dose: < 70%

OC(c1cn2cc(-c3ccccc3)nc2s1)(C(F)(F)F)C(F)(F)F
growth inhibition at single dose: < 70%

FC(F)(F)c1cnc(Sc2nnc(-c3ccncc3)o2)c(Cl)c1
growth inhibition at single dose: < 70%

O=C(c1ccc(NCCO)cc1)C1C[C@H]1c1ccc(Cl)cc1 (stereo partly drawn)
growth inhibition at single dose: < 70%

O=C(N/N=C/c1ccc(O)cc1O)c1ccc[n+]([O-])c1
growth inhibition at single dose: < 70%

CNc1snc(C)c1C(=O)OCCOc1ccccc1C(C)=O
growth inhibition at single dose: < 70%

From the supplement of paper PMC8837787
